35 compounds from US12509474B2, “Inhibitors of complement factors and uses thereof” (Annexon, Inc., priority 2020, dated 2025) can be followed below.

For the assay, the target named is T1, human C1s protein (Homo sapiens, UniProt P09871).
T1 construct: A104
T1 sequence (P09871 16-688): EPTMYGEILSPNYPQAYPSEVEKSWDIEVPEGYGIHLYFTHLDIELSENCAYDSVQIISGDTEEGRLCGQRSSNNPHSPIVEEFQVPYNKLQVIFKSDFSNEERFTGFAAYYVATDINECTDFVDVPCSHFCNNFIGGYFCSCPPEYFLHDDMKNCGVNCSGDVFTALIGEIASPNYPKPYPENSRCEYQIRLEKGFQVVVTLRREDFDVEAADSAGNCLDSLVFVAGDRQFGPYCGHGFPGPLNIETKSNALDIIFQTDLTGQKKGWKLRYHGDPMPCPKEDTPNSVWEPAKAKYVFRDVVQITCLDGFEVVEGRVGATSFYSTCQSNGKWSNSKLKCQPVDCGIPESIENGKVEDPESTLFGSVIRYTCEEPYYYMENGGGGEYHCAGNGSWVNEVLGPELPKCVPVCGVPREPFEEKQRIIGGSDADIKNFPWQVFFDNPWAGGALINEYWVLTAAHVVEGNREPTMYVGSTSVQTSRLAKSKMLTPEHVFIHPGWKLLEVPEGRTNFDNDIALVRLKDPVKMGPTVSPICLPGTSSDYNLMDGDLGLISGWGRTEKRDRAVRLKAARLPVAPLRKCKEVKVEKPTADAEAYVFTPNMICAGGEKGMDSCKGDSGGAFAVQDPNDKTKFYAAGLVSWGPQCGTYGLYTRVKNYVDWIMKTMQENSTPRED
Briefly: C1s enzymatic assay (hydrolysis of YLGR-Rh110-dPro). The class given is biochemical. To be noted: substrate YLGR-Rh110-dPro 20 μM, 15 min pre-incubation, 60 min RT, fluorescence, read-out: hC1s pIC50 (converted). The procedure:
Compound Testing in the C1s Enzymatic Assay
The enzyme cleaves the substrate with the release of Rh110 which is highly fluorescent. C1s inhibitors prevent the hydrolysis of the substrate thus resulting in a decrease of the signal.
On the day of the experiment 0.1 mg/mL BSA (Sigma, B4287) is added fresh to the buffer. The test item stock solutions are serially diluted 1:3 or 1:4 or 1:5 with DMSO, 11-point curves, in a 384-well compound plate. Nafamostat concentration curve is always included in the assay plate as a reference control.
The high controls are prepared dispensing in 0.25 μL DMSO in column 23, rows AH or AP and low controls with 0.25 μL of 0.1 M Nafamostat. […] The YLGR-Rh110-dPro substrate is prepared as 2× of the final assay concentration of 20 μM. 1/well of 2× enzyme solution is dispensed and pre-incubated for 15 min with the compounds. The enzymatic reaction is then started with 5 μL/well of the 2× substrate solution.

Counter-ions that a name gives are not always drawn.

For `Cc1ccc(B(O)O)cc1-c1ccc2c(N)nnc(C)c2c1` [Example 10, [3-(1-amino-4-methylphthalazin-6-yl)-4-methylphenyl]boronic Acid Formic Acid Salt], the IC50 is 6.92 nM. As for `Nc1nnc(C2CC2)c2cc(-c3cccc(B(O)O)c3)ccc12` [Example 11, [3-(1-amino-4-cyclopropylphthalazin-6-yl)phenyl]boronic Acid Formic Acid Salt], the IC50 was 214 nM. Take `CCc1ccc(B(O)O)cc1-c1ccc2c(N)nnc(C)c2c1` [Example 12, [3-(1-amino-4-methylphthalazin-6-yl)-4-ethylphenyl]boronic Acid Formic Acid Salt]: the IC50 was 8.13 nM. In the case of `Cc1cc2cc(-c3cccc(B(O)O)c3)ccc2c(N)n1` [Example 13, [3-(1-amino-3-methylisoquinolin-6-yl)phenyl]boronic Acid; Trifluoroacetic Acid Salt], the IC50 is 37.2 nM. `Cc1nnc(N)c2ccc(-c3ccc4c(c3)B(O)OC4)cc12` [Example 14, 6-(1-hydroxy-3H-2,1-benzoxaborol-6-yl)-4-methylphthalazin-1-amine Formic Acid Salt]: the IC50 is 14.1 nM.

Regarding `Cc1nnc(N)c2ccc(-c3cc(B(O)O)ccc3OC(F)(F)F)cc12` [Example 15, [3-(1-amino-4-methylphthalazin-6-yl)-4-(trifluoromethoxy)phenyl]boronic Acid], the IC50 is 1.7 nM. Under `COCCOCCOCCOCCOCCOCCOc1ccc(B(O)O)cc1-c1ccc2c(N)nnc(C)c2c1` [Example 16, [3-(1-amino-4-methylphthalazin-6-yl)-4-[2-[2-[2-[2-[2-(2-methoxyethoxy)ethoxy]ethoxy]ethoxy]ethoxy]ethoxy]phenyl]boronic Acid] stands 4.79 nM. As to `Cc1nnc(N)c2ccc(-c3cncc(B(O)O)c3)cc12` [Example 17, [5-(1-amino-4-methylphthalazin-6-yl)pyridin-3-yl]boronic Acid], the IC50 is 1.74 nM. Turning to `Nc1nncc2cc(-c3cc(B(O)O)ccc3NC(=O)c3ccccc3Cl)ccc12` [Example 18, [3-(1-aminophthalazin-6-yl)-4-[(2-chlorobenzoyl)amino]phenyl]boronic Acid Formic Acid Salt], the IC50 was 5.5 nM. As to `Cc1nnc(N)c2ccc(-c3cc(B(O)O)ccc3F)cc12` [Example 19, [3-(1-amino-4-methylphthalazin-6-yl)-4-fluorophenyl]boronic acid formic acid salt], the IC50 was 1.35 nM. With `COc1cc2c(cc1-c1ccc3c(N)nnc(C)c3c1)B(O)OC2` [Example 20, 6-(1-hydroxy-5-methoxy-3H-2,1-benzoxaborol-6-yl)-4-methylphthalazin-1-amine], the IC50 is 10 nM.

Turning to `COc1ccc(B(O)O)cc1-c1ccc2c(N)nc(C)cc2c1` [Example 22, [3-(1-amino-3-methylisoquinolin-6-yl)-4-methoxyphenyl]boronic Acid], the IC50 was 269 nM.

As for `Cc1nnc(N)c2ccc(-n3cc(B(O)O)cn3)cc12` [Example 23, [1-(1-amino-4-methylphthalazin-6-yl)pyrazol-4-yl]boronic Acid], the IC50 was 363 nM. Regarding `COc1cc(F)c(B(O)O)cc1-c1ccc2c(N)nnc(C)c2c1` [Example 25, [5-(1-amino-4-methylphthalazin-6-yl)-2-fluoro-4-methoxyphenyl]boronic Acid], the IC50 was 1.7 nM.

Take `Cc1nnc(N)c2ccc(-c3ccc4c(c3)B(O)OCC4)cc12` [Example 26, Formic Acid Salt]: the IC50 is 2.19 nM. On to `COc1cc(C)c(B(O)O)cc1-c1ccc2c(N)nnc(C)c2c1` [Example 28, [5-(1-amino-4-methylphthalazin-6-yl)-4-methoxy-2-methylphenyl]boronic Acid Formic Acid Salt], for which the IC50 was 1.78 nM. `Cc1nnc(N)c2ccc(-c3cc(B(O)O)ccc3C#N)cc12` [Example 29, [3-(1-amino-4-methylphthalazin-6-yl)-4-cyanophenyl]boronic Acid]: the IC50 is 1.91 nM. For `COc1ncc(B(O)O)cc1-c1ccc2c(N)nnc(C)c2c1` [Example 30, [5-(1-amino-4-methylphthalazin-6-yl)-6-methoxypyridin-3-yl]boronic Acid], the IC50 was 2.04 nM. Under `COc1ccc(B(O)O)cc1-c1cc(F)c2c(N)cnnc2c1` [Example 31, [3-(4-amino-5-fluorocinnoline-7-yl)-4-methoxyphenyl]boronic Acid] stands 15.1 nM; under `COc1cc2c(cc1-c1ccc3c(N)nnc(C)c3c1)B(O)OCC2` [Example 32, 6-(1-hydroxy-6-methoxy-3,4-dihydro-2,1-benzoxazonin-7-yl)-4-methylphthalazin-1-amine Formic Acid Salt], 4.68 nM. As for `COc1ccc(B(O)O)c(F)c1-c1ccc2c(N)nnc(C)c2c1` [Example 34, [3-(1-amino-4-methylphthalazin-6-yl)-2-fluoro-4-methoxyphenyl]boronic Acid Formic Acid Salt], the IC50 was 1.02 nM. Under `COc1cc(C(F)F)c(B(O)O)cc1-c1ccc2c(N)nnc(C)c2c1` [Example 35, [5-(1-amino-4-methylphthalazin-6-yl)-2-(difluoromethyl)-4-methoxyphenyl]boronic Acid] stands 2.69 nM; under `Cc1nnc(N)c2ccc(-c3cc(B(O)O)cc(F)c3C#N)cc12` [Example 36, [3-(1-amino-4-methylphthalazin-6-yl)-4-cyano-5-fluorophenyl]boronic Acid Formic Acid Salt], 1.91 nM.

As to `COc1cc(C(F)(F)F)c(B(O)O)cc1-c1ccc2c(N)nnc(C)c2c1` [Example 37, [5-(1-amino-4-methylphthalazin-6-yl)-4-methoxy-2-(trifluoromethyl)phenyl]boronic Acid Formic Acid Salt], the IC50 is 1.58 nM. Under `Cc1nnc(N)c2ccc(-c3cc(B(O)O)cc(C(F)(F)F)c3)cc12` [Example 38] stands 1.05 nM; under `Cc1nnc(N)c2ccc(-c3cc(B(O)O)ccc3C(F)(F)F)cc12` [Example 39, [3-(1-amino-4-methylphthalazin-6-yl)-4-(trifluoromethyl)phenyl]boronic Acid Formic Acid Salt], 1.32 nM. As for `Cc1nnc(N)c2ccc(-c3cc(B(O)O)cc(P(C)(C)=O)c3)cc12` [Example 40, [3-(1-amino-4-methylphthalazin-6-yl)-5-dimethylphosphorylphenyl]boronic Acid Formic Acid Salt], the IC50 is 1.02 nM. Under `Cc1cc(C#N)c(-c2ccc3c(N)nnc(C)c3c2)cc1B(O)O` [Example 41, [5-(1-amino-4-methylphthalazin-6-yl)-4-cyano-2-methylphenyl]boronic Acid] stands 1.2 nM; under `COc1c(C)cc(B(O)O)cc1-c1ccc2c(N)nnc(C)c2c1` [Example 42, [3-(1-amino-4-methylphthalazin-6-yl)-4-methoxy-5-methylphenyl]boronic Acid Formic Acid Salt], 1.38 nM.

Take `COc1cc(C2CC2)c(B(O)O)cc1-c1ccc2c(N)nnc(C)c2c1` [Example 43, [5-(1-amino-4-methylphthalazin-6-yl)-2-cyclopropyl-4-methoxyphenyl]boronic Acid]: the IC50 was 1 nM. Regarding `COc1cc(OC(F)(F)F)c(B(O)O)cc1-c1ccc2c(N)nnc(C)c2c1` [Example 44, [5-(1-amino-4-methylphthalazin-6-yl)-4-methoxy-2-(trifluoromethoxy)phenyl]boronic Acid], the IC50 is 0.813 nM. As for `COc1c(C)cc(-c2ccc3c(N)nnc(C)c3c2)cc1B(O)O` [Example 45, [5-(1-amino-4-methylphthalazin-6-yl)-2-methoxy-3-methylphenyl]boronic Acid], the IC50 was 0.562 nM. Under `COc1cc2c(cc1-c1ccc3c(N)cnnc3c1)B(O)OCC2` [Example 46, 7-(1-hydroxy-6-methoxy-3,4-dihydro-2,1-benzoxazonin-7-yl)cinnolin-4-amine Trifluoroacetic Acid Salt] stands 7.41 nM. For `Cc1nnc(N)c2ccc(-c3cc(P(C)(C)=O)cc(B(O)O)c3F)cc12` [Example 47, [3-(1-amino-4-methylphthalazin-6-yl)-5-dimethylphosphoryl-2-fluorophenyl]boronic Acid Formic Acid Salt], the IC50 was 75.9 nM. With `COc1ccc(B(O)O)c(F)c1-c1ccc2c(N)cnnc2c1` [Example 48, [3-(4-aminocinnolin-7-yl)-2-fluoro-4-methoxyphenyl]boronic Acid], the IC50 is 4.07 nM.
